Experimental data from patent US20240409519A1, “HYDROGENATED QUINOXALINES” (OTSUKA PHARMACEUTICAL CO., LTD., priority 2021, published 2024).
One block for each compound: values may come before it.

Tests used:
[1] = Metabolic stability test (human liver microsome, hepatic intrinsic clearance); format: in vitro ADME; settings: human liver microsomes, pH 7.4; human liver microsome 0.2 mg/mL, test compound 0.001 mmol/L, 37° C., 0, 10 and 20 minutes
Method: A metabolic reaction was initiated by adding and mixing a test compound solution (final concentration 0.001 mmol/L) and a NADH/NADPH solution (final concentration 1 mmol/L) to a human liver microsome solution (final concentration 100 mmol/L potassium phosphate buffer solution (pH 7.4), 5 mmol/L magnesium chloride, 0.2 mg/ml, human liver microsome). A solution of the internal standard in methanol was prepared and used as a quenching solution.
Specifically, a metabolic reaction was initiated by adding and mixing 2.5 μL of a solution of a test compound in acetonitrile to 222.5 μL of a human liver microsome solution in ice water, followed by preincubation at 37° C. for 1 minute, and then adding 25 μL of a NADH/NADPH solution thereto.
The mixture was centrifuged (6130 g, 4° C., 10 minutes) and the supernatant was used as a sample for LC-MS/MS.
Peak area ratio ([peak area of test compound]/[peak area of internal standard]) was calculated for the test compound and the internal standard.
The residual ratio of the test compound was calculated from ([Ratio of peak areas at each reaction time]/[Ratio of peak areas at 0 minute reaction time]).

[2] = biological target: T1, norepinephrine (NE) uptake (Rattus norvegicus, UniProt Q63380); test: Norepinephrine (NE) uptake inhibitory activity using rat brain synaptosome; format: biochemical; settings: rat hippocampus synaptosome, tritium-labeled NE 12 nM; read-out: IC50 (nM), norepinephrine (NE) uptake inhibition
T1 construct: used as crude synaptosomal fraction; from tissue; host or cells: rat hippocampus, crude synaptosomal fraction
T1 sequence (Q63380 1-617): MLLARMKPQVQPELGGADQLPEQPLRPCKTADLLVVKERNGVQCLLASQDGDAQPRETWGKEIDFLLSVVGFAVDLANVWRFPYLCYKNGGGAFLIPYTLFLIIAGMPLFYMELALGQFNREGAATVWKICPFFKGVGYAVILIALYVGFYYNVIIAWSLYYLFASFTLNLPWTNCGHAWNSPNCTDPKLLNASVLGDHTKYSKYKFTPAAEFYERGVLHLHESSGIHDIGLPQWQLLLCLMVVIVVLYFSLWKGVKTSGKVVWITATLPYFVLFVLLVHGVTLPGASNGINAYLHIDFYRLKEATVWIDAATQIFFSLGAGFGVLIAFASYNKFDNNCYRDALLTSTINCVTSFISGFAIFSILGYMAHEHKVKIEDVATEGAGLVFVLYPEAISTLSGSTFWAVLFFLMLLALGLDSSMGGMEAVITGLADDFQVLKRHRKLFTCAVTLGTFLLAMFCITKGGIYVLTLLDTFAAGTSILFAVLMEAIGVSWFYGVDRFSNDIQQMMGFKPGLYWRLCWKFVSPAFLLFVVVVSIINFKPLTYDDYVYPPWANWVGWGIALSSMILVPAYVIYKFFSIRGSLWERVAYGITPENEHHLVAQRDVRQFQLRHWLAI
Method: (§1) Male Wistar rats were decapitated, each brain was removed, and the hippocampus was cut out. […] The homogenate was centrifuged at 1000 g at 4° C. for 10 minutes, and the supernatant was further centrifuged at 20000 g at 4° C. for 20 minutes. The pellet was suspended in an incubation buffer (20 mM Hepes buffer (pH 7.4) containing 10 mM glucose, 145 mM sodium chloride, 4.5 mM potassium chloride, 1.2 mM magnesium chloride and 1.5 mM calcium chloride) and used as crude synaptosomal fraction.
Each well of a 96-well round-bottom plate was used for the uptake reaction in a total volume of 200 μL solution containing purgurin (final concentration 10 μM) and ascorbic acid (final concentration 0.2 mg/mL).
After 10 minutes, the uptake reaction was terminated by suction filtration onto a 96-well glass fiber filter plate. The filters were rinsed with cold physi-ological saline solution, dried thoroughly, and micro scintillation 0 (Perkin-Elmer) was added thereto. Then, the residual radioactivity on the filters was measured.
The uptake value when only solvent was added was set as 100%, the uptake value when unlabeled NE (final concentration 10 μM) was added as 0% (nonspecific uptake value), and the 50% inhibitory concentration was calculated from the concentration of the test compound and its inhibitory activity.

dopamine (DA) uptake = biological target: T2, dopamine (DA) uptake (Rattus norvegicus, UniProt P23977); test: Dopamine (DA) uptake inhibitory activity using rat brain synaptosome; format: biochemical; settings: rat striatum synaptosome, tritium-labeled DA 2 nM; read-out: IC50 (nM), dopamine (DA) uptake inhibition
T2 construct: used as crude synaptosomal fraction; from tissue; host or cells: rat striatum, crude synaptosomal fraction
T2 sequence (P23977 whole entry): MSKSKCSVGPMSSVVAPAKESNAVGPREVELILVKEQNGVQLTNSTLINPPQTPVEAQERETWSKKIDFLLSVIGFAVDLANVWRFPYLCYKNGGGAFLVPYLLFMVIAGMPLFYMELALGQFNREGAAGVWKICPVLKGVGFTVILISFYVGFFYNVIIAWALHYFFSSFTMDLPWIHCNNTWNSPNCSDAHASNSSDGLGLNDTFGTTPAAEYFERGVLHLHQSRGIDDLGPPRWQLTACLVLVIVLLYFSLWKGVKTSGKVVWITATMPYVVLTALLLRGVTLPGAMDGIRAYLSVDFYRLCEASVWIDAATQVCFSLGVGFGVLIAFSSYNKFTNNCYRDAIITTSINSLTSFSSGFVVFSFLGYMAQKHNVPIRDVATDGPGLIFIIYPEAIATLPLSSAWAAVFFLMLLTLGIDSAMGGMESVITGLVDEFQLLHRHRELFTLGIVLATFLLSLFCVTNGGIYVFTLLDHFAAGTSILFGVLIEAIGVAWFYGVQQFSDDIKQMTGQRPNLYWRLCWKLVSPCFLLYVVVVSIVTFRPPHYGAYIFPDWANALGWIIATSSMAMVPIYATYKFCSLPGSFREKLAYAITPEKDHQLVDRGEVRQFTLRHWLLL
Method: as §1, with “striatum” for “hippocampus”
(§2) Each well of a 96-well round-bottom plate was used for the uptake reaction in a total volume of 200 μl solution containing purgurin (final concentration 10 μM) and ascorbic acid (final concentration 0.2 mg/mL). In other words, solvent, unlabeled DA or step-diluted test compound was added to each well, and one-tenth of the final volume of the synaptosomal fraction was added to each well, followed by pre-incubation at 37° C. for 10 minutes, and then tritium-labeled DA solution (final concentration 2 nM) was added and the uptake reaction was initiated at 37° C. After 10 minutes, the uptake reaction was terminated by suction filtration onto a 96-well glass fiber filter plate. The filters were rinsed with cold physi-ological saline solution, dried thoroughly, and micro scintillation 0 (Perkin-Elmer) was added thereto. Then, the residual radioactivity on the filters was measured.
The uptake value when only solvent was added was set as 100%, the uptake value when unlabeled DA (final concentration 10 μM) was added as 0% (nonspecific uptake value), and the 50% inhibitory concentration was calculated from the concentration of the test compound and its inhibitory activity.

serotonin (5-HT) uptake = biological target: T3, serotonin (5-HT) uptake (Rattus norvegicus, UniProt P31652); test: Serotonin (5-HT) uptake inhibitory activity in rat brain synaptosome; format: biochemical; settings: rat frontal cortex synaptosome, tritium-labeled 5-HT 8 nM; read-out: IC50 (nM), serotonin (5-HT) uptake inhibition
T3 construct: used as crude synaptosomal fraction; from tissue; host or cells: rat frontal cortex, crude synaptosomal fraction
T3 sequence (P31652 whole entry): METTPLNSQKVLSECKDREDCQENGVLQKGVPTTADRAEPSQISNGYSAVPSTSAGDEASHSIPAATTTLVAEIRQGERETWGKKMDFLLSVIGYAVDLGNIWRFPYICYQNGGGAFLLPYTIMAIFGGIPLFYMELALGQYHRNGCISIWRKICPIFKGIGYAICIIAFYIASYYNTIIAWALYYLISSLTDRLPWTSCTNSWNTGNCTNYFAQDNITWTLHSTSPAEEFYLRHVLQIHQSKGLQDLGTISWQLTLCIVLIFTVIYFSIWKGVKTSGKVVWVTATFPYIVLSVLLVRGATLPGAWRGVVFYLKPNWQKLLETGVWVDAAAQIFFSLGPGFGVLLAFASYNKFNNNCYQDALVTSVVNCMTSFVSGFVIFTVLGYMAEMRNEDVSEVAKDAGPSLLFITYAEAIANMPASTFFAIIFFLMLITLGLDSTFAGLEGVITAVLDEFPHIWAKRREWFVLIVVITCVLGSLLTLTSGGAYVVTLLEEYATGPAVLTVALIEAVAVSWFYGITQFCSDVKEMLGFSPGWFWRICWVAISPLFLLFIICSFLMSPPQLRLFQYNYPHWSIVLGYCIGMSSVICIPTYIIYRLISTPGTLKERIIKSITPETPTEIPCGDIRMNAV
Method: as §1, with “frontal cortex” for “hippocampus”
as §2, with “200 μL” for “200 μl”, “unlabeled 5-HT” for “unlabeled DA”, “tritium-labeled 5-HT” for “tritium-labeled DA”, “concentration 8” for “concentration 2”
The uptake value when only solvent was added was set as 100%, the uptake value when unlabeled 5-HT (final concentration 10 μM) was added as 0% (nonspecific uptake value), and the 50% inhibitory concentration was calculated from the concentration of the test compound and its inhibitory activity.

Compound: CC1(C)CN(c2cc(Br)c(OCCO)cc2F)[C@H]2CCCC[C@H]2N1 [Example 62]
microsomal CLint at 0.001 mmol/L [1]: < 50 µL/min/mg | IC50 [2]: 6.9 nM | IC50 (dopamine (DA) uptake): 273 nM | IC50 (serotonin (5-HT) uptake): 8.6 nM

Compound: CC1(C)CN(c2ccc(OC(F)(F)CO)cc2F)[C@H]2CCCC[C@H]2N1 [Example 61, 2-(4-((4aR,8aS)-3,3-dimethyloctahydroquinoxalin-1(2H)-yl)-3-fluorophenoxy)-2,2-difluoroethan-1-ol 1/2fumarate]
microsomal CLint at 0.001 mmol/L [1]: < 50 µL/min/mg | IC50 [2]: 6.1 nM | IC50 (dopamine (DA) uptake): 60.2 nM | IC50 (serotonin (5-HT) uptake): 9 nM

Compound: CC1(C)CN(c2ccc(OC(F)(F)CO)cc2)[C@@H]2CCCC[C@H]2N1 [Example 21]
microsomal CLint at 0.001 mmol/L [1]: < 50 µL/min/mg | IC50 [2]: 69 nM | IC50 (dopamine (DA) uptake): 199 nM | IC50 (serotonin (5-HT) uptake): 89.9 nM

Compound: CC1(C)CN(c2ccc(OC(F)(F)CO)c(Cl)c2F)[C@@H]2CCCC[C@H]2N1 [Example 80]
microsomal CLint at 0.001 mmol/L [1]: 57 µL/min/mg | IC50 [2]: 12.4 nM | IC50 (dopamine (DA) uptake): 90 nM | IC50 (serotonin (5-HT) uptake): 62.8 nM

Compound: CC1(C)CN(c2cc(F)c(OC(F)(F)CO)cc2F)[C@H]2CCCC[C@H]2N1 [Example 71]
microsomal CLint at 0.001 mmol/L [1]: < 50 µL/min/mg | IC50 [2]: 6.3 nM | IC50 (dopamine (DA) uptake): 81.4 nM | IC50 (serotonin (5-HT) uptake): 57 nM

Compound: Cc1cc(N2CC(C)(C)N[C@@H]3CCCC[C@@H]32)cc(F)c1OC(F)(F)CO [Example 58]
microsomal CLint at 0.001 mmol/L [1]: < 50 µL/min/mg | IC50 [2]: 6.4 nM | IC50 (dopamine (DA) uptake): 58.4 nM | IC50 (serotonin (5-HT) uptake): 22.9 nM

Compound: CC1(C)CN(c2ccc(OCCO)c(Cl)c2)[C@H]2CCCC[C@@H]2N1 [Example 27, 2-(2-chloro-4-((4aS,8aS)-3,3-dimethyloctahydroquinoxalin-1(2H)-yl)phenoxy)ethan-1-ol]
microsomal CLint at 0.001 mmol/L [1]: < 50 µL/min/mg | IC50 [2]: 7.7 nM | IC50 (dopamine (DA) uptake): 99 nM | IC50 (serotonin (5-HT) uptake): 7.6 nM

Compound: CC1(C)CN(c2ccc(OCCO)c(F)c2)[C@H]2CCCC[C@H]2N1 [Example 52]
microsomal CLint at 0.001 mmol/L [1]: < 50 µL/min/mg | IC50 [2]: 8.3 nM | IC50 (dopamine (DA) uptake): 74.4 nM | IC50 (serotonin (5-HT) uptake): 55 nM

Compound: C[C@H]1CN(c2cc(F)c(OCCO)c(Cl)c2)[C@H]2CCCC[C@H]2N1 [Example 18]
microsomal CLint at 0.001 mmol/L [1]: < 50 µL/min/mg | IC50 [2]: 13.3 nM | IC50 (dopamine (DA) uptake): 42.9 nM | IC50 (serotonin (5-HT) uptake): 73.1 nM

Compound: OCCOc1ccc(N2CC3(CCC3)N[C@H]3CCCC[C@@H]32)cc1 [Example 8]
microsomal CLint at 0.001 mmol/L [1]: < 50 µL/min/mg | IC50 [2]: 37.2 nM | IC50 (dopamine (DA) uptake): 49.5 nM | IC50 (serotonin (5-HT) uptake): 10 nM

The next compounds have a lower IC50 [2] than those just listed; values first:

microsomal CLint at 0.001 mmol/L [1]: < 50 µL/min/mg | IC50 [2]: 4.3 nM | IC50 (dopamine (DA) uptake): 41.1 nM | IC50 (serotonin (5-HT) uptake): 17 nM
Compound: CC1(C)CN(c2ccc(OCCO)c3occc23)[C@H]2CCCC[C@H]2N1 [Example 51]

microsomal CLint at 0.001 mmol/L [1]: < 50 µL/min/mg | IC50 [2]: 5.2 nM | IC50 (dopamine (DA) uptake): 37.5 nM | IC50 (serotonin (5-HT) uptake): 15.3 nM
Compound: CC1(C)CN(c2ccc(OCCO)c(Cl)c2)[C@H]2CCCC[C@H]2N1 [Example 44, 2-(2-chloro-4-((4aR,8aS)-3,3-dimethyloctahydroquinoxalin-1(2H)-yl)phenoxy)ethan-1-ol 1/2fumarate]

microsomal CLint at 0.001 mmol/L [1]: < 50 µL/min/mg | IC50 [2]: 2.4 nM | IC50 (dopamine (DA) uptake): 47.4 nM | IC50 (serotonin (5-HT) uptake): 62.7 nM
Compound: C[C@@H]1CN(c2ccc(OC(F)(F)CO)c(Cl)c2)[C@H]2CCCC[C@@H]2N1 [Example 19]

microsomal CLint at 0.001 mmol/L [1]: < 50 µL/min/mg | IC50 [2]: 5.8 nM | IC50 (dopamine (DA) uptake): 214 nM | IC50 (serotonin (5-HT) uptake): 7.7 nM
Compound: CC1(C)CN(c2ccc(OCCO)c3occc23)[C@@H]2CCCC[C@@H]2N1 [Example 50]
